This note sets out measurements from patent US11072611B2, “Compounds and pharmaceutical compositions thereof for the treatment of inflammatory disorders” (Galapagos NV, priority 2013, dated 2021).

Molecules are shown by their SMILES. Where only a bound is given, the exact number is not on record here.

The subject of assay [1] is tobacco smoke induced recruitment of inflammatory cells to the lungs. Briefly: Tobacco smoke (TS) model, lungs inflammatory cells recruitment. The format is in vivo, female C57BL/6J mice. Particulars: TS-exposed mice. As to the method: The aim of this experiment is to evaluate the efficacy and potency of a test compound administered p.o., once or twice daily on days 6 to 11, vs reference compounds, on pulmonary inflammation induced by 11 days of TS-exposure in female C57BL/6J mice, by assessing the effect of a test compound on the tobacco smoke induced recruitment of inflammatory cells to the lungs.
The test compounds are formulated in PEG200/0.5% methylcellulose (25/75, v/v) and are given at a dose volume of 10 mL/kg. Roflumilast and Dexamethasone are included as positive […] control, respectively. Each treatment group consists of 10 mice.
A first group of mice is subjected to daily TS-exposure for 5 consecutive days and sacrificed on the day 6, 24 h after the final TS-exposure.
A second group is exposed to air for 5 consecutive days (sham exposure) and sacrificed on the day 6, 24 h after the final air-exposure.
Compound and reference-treated groups are subjected to daily TS-exposure for 11 consecutive days and sacrificed on the day 12, 24 h after the final TS-exposure. Mice are dosed p.o. on days 6 to 11, twice daily, 1 h prior to and 6 h after each TS-exposure, with either vehicle, or the test compound at 3, 5, 10 or 30 mg/kg. Another group is dosed p.o. on days 6 to 11, once daily, 1 h prior to each TS-exposure, with either vehicle, or the test compound at 10 mg/kg.
An additional group is dosed p.o., once daily, on days 6 to 11, with roflumilast at 5 mg/kg, 1 h prior to each TS-exposure. Dexamethasone is dosed p.o., twice daily, on days 6 to 11, at 0.3 mg/kg, 1 h prior to and 6 h after each TS-exposure.
For each mouse, a BAL is performed using 0.4 mL of PBS. The lavage fluid is centrifuged, the supernatant removed and the resulting cell pellet re-suspended for total cell counts and cytospin slide preparation. […]
The lungs are dissected out and the left lobes are removed, snap-frozen and stored at −80° C. […] Cell data are presented as individual data points for each animal and the mean value calculated for each group. […]
Percentage inhibitions for the cell data are calculated using the formula below: […]

Assay [2] has as its system LPA 18:2. Briefly: Rat whole blood (plasma) LPA assay. Type of assay: biochemical. Particulars: 2 h at 37° C., LPA 18:2 by LC-MS/MS. As to the method: (§1) Whole blood is collected from rats or mouse by exsanguinations on sodium heparin tube, then after centrifugation at 3000 rpm for 15 min at 4° C., plasma is stored at −80° C. Compounds are diluted in DMSO in concentration dependent manner then 0.5 μL are dispensed into 96-well plate placed in ice. Plasma is defrosted on ice then 49.5 μL of plasma are added into the well containing 0.5 μL of compound (1% DMSO final). Plates are covered with a lid in polypropylene and incubated at +37° C., 5% CO2, for 2 h under gentle shaking (except controls which are stored at −20° C.).
(§2) At the end of the incubation, controls are defrosted in ice and transferred in the incubated plates for LC-MS/MS analysis with a non GLP-validated method. For the analysis, plasma proteins from a 10 μL incubated plates are precipitated with an excess of methanol containing the internal standard, LPA 17:0. After centrifugation, the corresponding supernatant is injected on a C18 column. Analytes are eluted out of the column under isocratic conditions. An API5500 QTRAP mass spectrometer (ABSciex™) is used for the detection of LPA 18:2. No calibration curve is prepared for LPA 18:2, however relative quantities are evaluated based on the peak area.

The test system of assay [3] is LPA 18:2. Briefly: Human whole blood (plasma) LPA assay. The format is biochemical. Particulars: 2 h at 37° C., LPA 18:2 by LC-MS/MS. As to the method: as §1, with “Blood is” for “Whole blood is”, “from healthy volunteers who gave informed consent into” for “from rats or mouse by exsanguinations on”, “heparin tubes by venipuncture,” for “heparin tube,”, “then gently inverted several times to prevent clotting. Tubes are centrifuged” for “then after centrifugation”, “4° C. then” for “4° C.,”
as §2

A word on the IC50: it is the concentration that inhibits the measured activity by half. Read a high IC50 as weaker potency.

As for `CCc1nc2c(C)cc(N3CCN(CC(=O)N4CC(O)C4)CC3)cn2c1N(C)c1nc(-c2ccc(F)cc2)c(C#N)s1` [Compound 2, 2-((2-ethyl-6-(4-(2-(3-hydroxyazetidin-1-yl)-2-oxoethyl)piperazin-1-yl)-8-methylimidazo[1,2-a]pyridin-3-yl)(methyl)amino)-4-(4-fluorophenyl)thiazole-5-carbonitrile], the “number of cells recovered in the BALF (macrophage cells, epithelial cells, neutrophils)” value in assay [1] (3 mg/kg twice daily p.o.) and in assay [1] (10 mg/kg twice daily p.o.) was “significantly inhibited” in each case.
Consider `CCc1nc2c(F)cc(N3CCN(CC(=O)N4CC(O)C4)CC3)cn2c1N(C)c1nc(-c2ccc(F)cc2)c(C#N)s1` [Compound 12, 2-((2-ethyl-8-fluoro-6-(4-(2-(3-hydroxyazetidin-1-yl)-2-oxoethyl)piperazin-1-yl)imidazo[1,2-a]pyridin-3-yl)(methyl)amino)-4-(4-fluorophenyl)thiazole-5-carbonitrile], for which the IC50 in the assay with LPA 18:2 [2] lay within 0.01 to 100 nM. Moreover, in assay [1] (10 mg/kg twice daily p.o.), the “number of cells recovered in the BALF (macrophage cells, epithelial cells, neutrophils)” value is listed as “significantly inhibited”.
For `CCc1nc2ccc(C3CCN(S(C)(=O)=O)CC3)cn2c1N(C)c1nc(-c2ccc(F)cc2)cs1` [Compound 80, N-(2-ethyl-6-(1-(methylsulfonyl)piperidin-4-yl)imidazo[1,2-a]pyridin-3-yl)-4-(4-fluorophenyl)-N-methylthiazol-2-amine], the IC50 in the assay with LPA 18:2 [3] was > 1000 nM.
`CCc1nc2ccc(C3CCN(CC(=O)N4CC(O)C4)CC3)cn2c1N(C)c1nc(-c2ccc(F)cc2)cs1` [Compound 110, 2-(4-(2-ethyl-3-((4-(4-fluorophenyl)thiazol-2-yl)(methyl)amino)imidazo[1,2-a]pyridin-6-yl)piperidin-1-yl)-1-(3-hydroxyazetidin-1-yl)ethanone]: the IC50 in the assay with LPA 18:2 [3] and with LPA 18:2 [2] was > 1000 nM throughout.
With `CCc1nc2ccc(N3CCN(CCO)CC3)cn2c1N(C)c1nc(-c2ccc(F)cc2)cs1` [Compound 180, 2-(4-(2-ethyl-3-((4-(4-fluorophenyl)thiazol-2-yl)(methyl)amino)imidazo[1,2-a]pyridin-6-yl)piperazin-1-yl)ethanol], the IC50 in the assay with LPA 18:2 [2] is > 1000 nM.
Turning to `CCc1nc2ccc(N3CCS(=O)(=O)CC3)cn2c1N(C)c1nc(-c2ccc(F)cc2)cs1` [Compound 182, 4-(2-ethyl-3-((4-(4-fluorophenyl)thiazol-2-yl)(methyl)amino)imidazo[1,2-a]pyridin-6-yl)-thiomorpholine 1,1-dioxide], the IC50 with LPA 18:2 [2] was > 1000 nM.
On the same count and under the same terms, the result for `CCc1nc2ccc(N3CCN(S(C)(=O)=O)CC3)cn2c1N(C)c1nc(-c2ccc(Cl)cc2)ns1` [Compound 188, 3-(4-chlorophenyl)-N-(2-ethyl-6-(4-(methylsulfonyl)piperazin-1-yl)imidazo[1,2-a]pyridin-3-yl)-N-methyl-1,2,4-thiadiazol-5-amine] reads > 1000 nM; that for `CCc1nc2ccc(N3CCN(Cc4cnc[nH]4)CC3)cn2c1N(C)c1nc(-c2ccc(F)cc2)cs1` [Compound 192, N-(6-(4-((1H-imidazol-5-yl)methyl)piperazin-1-yl)-2-ethylimidazo[1,2-a]pyridin-3-yl)-4-(4-fluorophenyl)-N-methylthiazol-2-amine], > 1000 nM.
The same measure, in the same setting: the result for `CCc1nc2ccc(N3CCN(C(=O)[C@H](C)O)CC3)cn2c1N(C)c1nc(-c2ccc(F)cc2)cs1` [Compound 203, (S)-1-(4-(2-ethyl-3-((4-(4-fluorophenyl)thiazol-2-yl)(methyl)amino)imidazo[1,2-a]pyridin-6-yl)piperazin-1-yl)-2-hydroxypropan-1-one] reads > 1000 nM.
Still for that read-out and setting: the result for `CCc1nc2ccc(N3CCOC3=O)cn2c1N(C)c1nc(-c2ccc(Cl)cc2)cs1` [Compound 206, 3-(3-((4-(4-chlorophenyl)thiazol-2-yl)(methyl)amino)-2-ethylimidazo[1,2-a]pyridin-6-yl)oxazolidin-2-one] reads > 1000 nM.
As to `CCc1nc2ccc(N3CCN(CCO)CC3)cn2c1N(C)c1nc(-c2ccc(Cl)cc2)cs1` [Compound 212, 2-(4-(3-((4-(4-chlorophenyl)thiazol-2-yl)(methyl)amino)-2-ethylimidazo[1,2-a]pyridin-6-yl)piperazin-1-yl)ethanol], in the assay with LPA 18:2 [2], the IC50 is > 1000 nM.
For the molecule `CCc1nc2ccc(N3CCS(=O)(=O)CC3)cn2c1N(C)c1nc(-c2ccc(Cl)cc2)cs1` [Compound 213, 4-(2-ethyl-3-((4-(4-chlorophenyl)thiazol-2-yl)(methyl)amino)imidazo[1,2-a]pyridin-6-yl)-thiomorpholine-1,1-dioxide], the IC50 in the assay with LPA 18:2 [2] is > 1000 nM.
Still for that read-out and setting: the result for `CCc1nc2ccc(N3CCN(Cc4ncc[nH]4)CC3)cn2c1N(C)c1nc(-c2ccc(F)cc2)cs1` [Compound 226, N-(6-(4-((1H-imidazol-2-yl)methyl)piperazin-1-yl)-2-ethylimidazo[1,2-a]pyridin-3-yl)-4-(4-fluorophenyl)-N-methylthiazol-2-amine] reads > 1000 nM.
